Assay results published in patent publication US20040122001A1, “Pharmaceutical compounds” (priority 2000, published 2004).

| Structure (SMILES) | melting point [°C] |
| --- | --- |
| Fc1ccc2c(C3=CCN(CCC4OCCc5cc(Br)ccc54)CC3)c[nH]c2c1 (stereo not shown) | 184 to 185.6 |
| CNC(=O)c1ccc2c(c1)CCCN2CCN1CC=C(c2c[nH]c3cc(F)ccc23)CC1 | 121 to 125 |
| NC(=O)c1ccc2c(c1)CCCN2CCN1CC=C(c2c[nH]c3cc(F)ccc23)CC1 | 130 to 133 |
| O=C(NCCO)c1ccc2c(c1)CCCN2CCN1CC=C(c2c[nH]c3cc(F)ccc23)CC1 | 136 to 140 |
